Structures can show the parent of a compound that is named as a salt.
Columns and labels:
HIV-1 clade C K3016 [1] = test: CA-SP1 accumulation assay (immunoblot), clade C K3016; format: cell-based
Protocol: (§1) Compound evaluation was performed against a panel of HIV-1 Clade C isolates K3016, pindieC1, and ZM247. The three isolates all contain the SP1-A7V. Clade B NL4-3 was included as the […] control.
(§2) Plasmids, tissue culture and transfections. HIV-1 clade B molecular clone NL4-3 and cade C clones K3016, ZM247 were obtained from Dr. Christina Ochsenbauer, University of Alabama, USA. Both K3016 and ZM247 were constructed using viral strains from South Africa. The HIV-1 clade C molecular clone pindieC1 was obtained from Dr. Uday Ranga, JNCASR, India. This clone was constructed using an HIV strain from India. HEK-293T and TZM-bl cells were propagated in Dulbecco's modified Eagle's medium (DM4EM) containing 10% fetal bovine serum (FBS). HUT-R5 cells were propagated in RPM 1640 medium supplemented with 10% FBS. For transfections, HEK-293T cells were grown in six well plates to about 80% confluency. Cells were transfected using Lipofectamine 2000 (invitrogen, USA) following manufacturer's recommendations. For viral replication assays, HUT-R5 T-cells were transfected using DEAE dextran as described in Waheed, A. A., Ono, A., and Freed, E. O.; Methods for the study of HIV-1 assembly; Methods Mol. Biol. Clifton N.J. 485, 163-184 (2009).
(§3) Preparation of viral stocks. Virus stocks were prepared by transfecting HEK-293T cells with HIV-1 DNAs (3 μg). 24 h post-transfection, the culture medium was replaced with fresh DMEM and incubated for another 2 h. Compounds tested were maintained in the culture throughout transfection. The culture supernatant was centrifuged at 845×g for 3 min to remove cellular debris. The clarified supernatants were filtered (pore size 0.45 µm filter disc) to remove residual cellular contaminants. For determination of viral infectivity, the un-concentrated virus was used to infect TZM-bl cells. For the CA-SP1 accumulation assay, the virus was pelleted by ultra-centrifugation at 210,100×g for 1 h at 4° C. using SW41Ti rotor (Beckman Coulter, USA).
(§4) CA-SP1 accumulation assay. To measure accumulation of CA-SP1, immunoblot analysis of virus-associated proteins was performed. The virus pellet was resuspended in radioimmunoprecipitation assay (RIPA) buffer (50 mM Tris-HCl pH 8.0, 150 mM sodium chloride, 1.0% NP-40, 0.5% sodium deoxycholate, 0.1% SDS) containing 1×protease inhibitor cocktail (Roche, Germany). The viral lysates were subjected to SDS-polyacrylamide gel electrophoresis (15% gel). Proteins were transferred to polyvinylidene difluoride membranes and reacted with HIV-IgG obtained from the NIH AIDS Reagent Program (catalog no. 3957) followed by incubation with HRP-conjugated anti-human secondary antibodies (GE Healthcare, UK). The proteins were visualized by enhanced chemiluminescence (Pierce, USA) and the bands were quantified using ImageJ software (http://imagej.nih.gov/ij/).

HIV-1 clade C K3016 [2] = test: Viral infectivity assay in TZM-bl cells (luciferase), K3016; format: cell-based; settings: DMSO = 100
Source text: as §2, §3
Viral infectivity assays. The virus stocks were normalized for p24 antigen using an HIV-1 p24 Antigen Capture kit (ABL, USA). Equal amounts of virus were used to infect TZM-bl cells (5×10^4/well) in the presence of 20 μg DEAE-dextran per mL in 24 well plate. Single-round infectivity assays were performed as previously described in Checkley, M. A. et al; Reevaluation of the Requirement for TIP47 in Human Immunodeficiency Virus Type 1 Envelope Glycoprotein Incorporation; J. Virol. 87, 3561-3570 (2013). The luciferase activity in the cell lysates was measured using the Steady-Glo luciferase assay kit (Promega, USA) following manufacturer's recommendations.

HIV-1 clade C pindieC1 = test: CA-SP1 accumulation assay (immunoblot), clade C pindieC1; format: cell-based; settings: head prints K3016
Protocol: as §1, §2, §3, §4

[3] = Cytotoxicity assay CellTiter-Blue, MT-4; format: cell-based; settings: human; MT-4 cells, 4 to 8 days; mean ± SEM, three experiments
Protocol: (§5) Cytotoxicity assays. Cytotoxicity was measured with CellTiter-Blue® Cell Viability Assay according to the manufacturer's protocol (Promega). Two cell lines, MT-4 and HeLa, were used in this assay. Cells were incubated with serial dilution of compounds at 37° C. for 4 to 8 days and subjected to CellTiter-Blue Reagent. The fluorescent signal was measured at 560 nm Ex/590 nm Em by a plate reader (TECAN, Infinite® M1000 PRO). The 50% cytotoxic concentrations (CC50s) were defined as compound concentrations at which the fluorescent signals were reduced by 50%/relative to the no-inhibitor (DMSO only) controls using GraphPad Prism 6 software and are reported in Table 1.

WT pNL4-3 in MT-4 cells = test: Antiviral assay in MT-4 cells (RT readout), WT NL4-3; format: cell-based, HIV-1; settings: Human immunodeficiency virus 1, NL43, MT4, 96 h, read-out: Antiviral Assay IC50 (nM) NL4-3
Protocol: Cell culture, plasmids and transfections. The MT-4 T-cell line was maintained in RPMI-1640 medium supplemented with 10% (vol/vol) fetal bovine serum (FBS), 2 mM glutamine, 100 U/mL penicillin and 100 μg/mL streptomycin at 37° C. in a humidified 5% CO2 atmosphere. HeLa and 293T cells were maintained in Dulbecco's modified Eagle's medium (DMEM) supplemented with 5% (vol/vol) FBS, 2 mM glutamine, 100 U/mL penicillin and 100 μg/mL streptomycin. Molecular clones used in this study were WT pNL4-3 and the derivative encoding a Val-to-Ala mutation at SP1 residue 7, referred to as SP1-V7A. The MT-4 T-cell line was transfected the DEAE/dextran procedure; HeLa and 293T cells were transfected with linear polyethylenimine (L-PEI) or Lipofectamine 2000 (Invitrogen) as recommended by the supplier.
Antiviral assays. To produce HIV-1 stocks, 293T cells were transfected with WT pNL4-3 or the SP1-V7A derivative and culture supernatants were collected 24 h post transfection. RT-normalized virus supernatants were used to infect MT-4 cells at room temperature for 30 min. Cells were then cultured in the presence of serial dilutions of compounds. […] The IC50s in primary peripheral blood mononuclear cells (PBMCs) were calculated with a multi-clade panel of HIV-1 isolates by Southern Research Institute (Frederick, Md.). […]

[4] = Cytotoxicity assay CellTiter-Blue, HeLa; format: cell-based; settings: human; HeLa cells, 4 to 8 days; mean ± SEM, three experiments
Protocol: as §5

With `C=C(C)[C@@H]1CC[C@]2(CCNCCN3CCN(S(C)(=O)=O)CC3)CC[C@]3(C)[C@H](CC[C@@H]4[C@@]5(C)CC[C@H](OC(=O)CC(C)(C)C(=O)O)C(C)(C)[C@@H]5CC[C@]43C)[C@@H]12` [Compound 51ff, (3β)-17-[2-[[2-[4-(Methylsulfonyl)piperazin-1-yl]ethyl]amino]ethyl]-28-norlup-20(29)-en-3-ol, 3-(1-Hydrogen 2,2-Dimethylbutanedioate)] the “% CA-SP1 Accumulation K3016 10 nM” value (HIV-1 clade C K3016 [1]) was 49.8%, the “% CA-SP1 Accumulation K3016 100 nM” value (HIV-1 clade C K3016 [1]) was 54.4% and the “% Relative Infectivity K3016 10 nM” value (HIV-1 clade C K3016 [2]) was 43.3%. The “% Relative Infectivity K3016 100 nM” value (HIV-1 clade C K3016 [2]) was 24.4%, the “% CA-SP1 Accumulation K3016 10 nM” value (HIV-1 clade C pindieC1) was 36.7% and the “% CA-SP1 Accumulation K3016 100 nM” value (HIV-1 clade C pindieC1) was 39.1%.
With `C=C(C)[C@@H]1CC[C@]2(CCNC3CCN(CCO)CC3)CC[C@]3(C)[C@H](CC[C@@H]4[C@@]5(C)CC[C@H](OC(=O)CC(C)(C)CC(=O)O)C(C)(C)[C@@H]5CC[C@]43C)[C@@H]12` [Compound 51f, (3β)-17-[2-[[1-(2-Hydroxyethyl)piperidin-4-yl]amino]ethyl]-28-norlup-20(29)-en-3-ol, 3-(Hydrogen 3,3-Dimethylpentanedioate), Bis(trifluoroacetate) Salt] the CC50 [3] was 366 ± 44 nM, the IC50 (WT pNL4-3 in MT-4 cells) was 21 ± 19 nM and the CC50 [4] was > 1000 nM.
For `C=C(C)[C@@H]1CC[C@]2(CCNCCN3CCN(Cc4ccccc4)CC3)CC[C@]3(C)[C@H](CC[C@@H]4[C@@]5(C)CC[C@H](OC(=O)CC(C)(C)C(=O)O)C(C)(C)[C@@H]5CC[C@]43C)[C@@H]12` [Compound 51hh, (3β)-17-[2-[[2-[4-(Phenylmethyl)piperazin-1-yl]ethyl]amino]ethyl]-28-norlup-20(29)-en-3-ol, 3-(1-Hydrogen 2,2-Dimethylbutanedioate)], the “% CA-SP1 Accumulation K3016 10 nM” value (HIV-1 clade C K3016 [1]) was 35.8%, the “% CA-SP1 Accumulation K3016 100 nM” value (HIV-1 clade C K3016 [1]) was 62.9% and the “% Relative Infectivity K3016 10 nM” value (HIV-1 clade C K3016 [2]) was 48.6%. The “% Relative Infectivity K3016 100 nM” value (HIV-1 clade C K3016 [2]) was 32.3%, the “% CA-SP1 Accumulation K3016 10 nM” value (HIV-1 clade C pindieC1) was 26.7% and the “% CA-SP1 Accumulation K3016 100 nM” value (HIV-1 clade C pindieC1) was 43.8%.
For `C=C(C)[C@@H]1CC[C@]2(CCNCCN3CCS(=O)(=O)CC3)CC[C@]3(C)[C@H](CC[C@@H]4[C@@]5(C)CC[C@H](OC(=O)CC(C)(C)C(=O)O)C(C)(C)[C@@H]5CC[C@]43C)[C@@H]12` [Compound 51ee, (3β)-17-[[[2-[2-(1,1-Dioxothiomorpholin-4-yl)]Ethyl]Amino]Ethyl]-28-norlup-20(29)-en-3-ol, 3-(1-Hydrogen 2,2-Dimethylbutanedioate)], the “% CA-SP1 Accumulation K3016 10 nM” value (HIV-1 clade C K3016 [1]) was 53.8%, the “% CA-SP1 Accumulation K3016 100 nM” value (HIV-1 clade C K3016 [1]) was 66.4% and the “% Relative Infectivity K3016 10 nM” value (HIV-1 clade C K3016 [2]) was 32.0%. The “% Relative Infectivity K3016 100 nM” value (HIV-1 clade C K3016 [2]) was 7.8%, the “% CA-SP1 Accumulation K3016 10 nM” value (HIV-1 clade C pindieC1) was 41.8% and the “% CA-SP1 Accumulation K3016 100 nM” value (HIV-1 clade C pindieC1) was 48.3%.

Reference: patent US11236122B2, “Triterpene amine derivatives” (DFH THERAPEUTICS, priority 2018, dated 2022)
